Measured values published in patent US7425532B2, “Use of alanyl aminopeptidase inhibitors and pharmaceutical compositions containing said inhibitors” (IMTM GmbH, priority 2002, dated 2008).

Key:
[1] = test system: human regulatory T-lymphocytes (CD4+CD25+); assay: Gene expression of TGF-β1 (TGF-β1-mRNA) in human regulatory T-lymphocytes, quantitative RT-PCR; format: cell-based; settings: PHA/PMA plus inhibitor
Description: Induction of the Gene Expression of TGF-β1 in Human Regulatory T-Lymphocytes (CD4^+CD25^+) After an Incubation with the Inhibitor Phebestin
(§1) The T-cells were incubated for 24 h without adding (control), with adding PHA and PMA or with simultaneously adding PHA/PMA and phebestin. PHA (phythemagglutinine) and PMA (phorbol myristate acetate) were used as mito-gens and agents stimulating the proliferation. Subsequently, the content of TGF-β1-mRNA was determined by quantitative RT-PCR and using the i-cycler.
Induction of the Gene Expression of TGF-β1 in Human Regulatory T-Lymphocytes (CD4^+CD25^+) after an incubation with the inhibitor PAQ-22
as §1, with “PMA and” for “PMA or”, “and PAQ-22.” for “and phebestin.”
Induction of the Gene Expression of TGF-β1 in Human Regulatory T-Lymphocytes (CD4^+CD25^+) After an Incubation with the Aminopeptidase Inhibitor RB3014
as §1, with “for 72” for “for 24”, “PMA and” for “PMA or”, “and RB3014.” for “and phebestin.”

[2] = test system: human regulatory T-lymphocytes (CD4+CD25+); assay: Surface expression of TGF-β1 on human regulatory T-lymphocytes, flow cytometry with anti-TGF-β1 antibody; format: cell-based; settings: 24 h incubation, PHA/PMA plus inhibitor; results only in FIG. 1
Description: Induction of the Surface Expression of TGF-β1 on Human Regulatory T-Lymphocytes (CD4^+CD25^+) After Incubation with the Inhibitor Phebestin
The T-cells were incubated for 24 h without adding (control), with adding PHA and PMA and with simultaneously adding PHA/PMA and phebestin. PHA (phythemagglutinine) and PMA (phorbol myristate acetate) were used as mito-gens and agents stimulating the proliferation. Subsequently, the surface expression of TGF-β1 was measured by flow cytometry using a commercially available polyclonal anti-TGF-β1 antibody (chicken anti-human; R & D Systems).

[3] = 24 h incubation, results only in FIG. 2, FIG. 3

## CC(N)P(=O)(O)CC(Cc1ccccc1)C(=O)NC(Cc1ccccc1)C(=O)O (stereo not shown) [RB3014]
[1]; 72 h incubation, results only in FIG. 4
  gene expression of TGF-β1 (content of TGF-β1-mRNA): Induction

## CC(C)[C@H](NC(=O)[C@@H](O)[C@H](N)Cc1ccccc1)C(=O)N[C@@H](Cc1ccccc1)C(=O)O [Phebestin, phebestin]
[2]
  surface expression of TGF-β1: Induction
[1]; [3]
  gene expression of TGF-β1 (content of TGF-β1-mRNA): Induction

## CCc1cccc(CC)c1-n1c(=O)[nH]c2ccccc2c1=O [PAQ-22]
[1]; [3]
  gene expression of TGF-β1 (content of TGF-β1-mRNA): Induction
